Read-outs that look alike come from different tables or passages of the source.
Columns and labels:
[1] = EGF10027 steady-state lapatinib concentrations in patient plasma and tumor; format: in vivo, human; conditions: for concentration at 12 h / concentration at 24 h: female, human, oral; for concentration at 12 h: 500 mg
HER2 phosphorylation = test system: HER2 phosphorylation; design: method as in printed; conditions: abstract, ref not given, cited from earlier work
efflux transporter ABCB1 = conditions: read-out: IC50 for inhibition of the efflux transporter ABCB1; cited from earlier work
plasma albumin = test system: plasma albumin; design: method as in printed; conditions: ref not given; cited from earlier work
plasma proteins = test system: plasma proteins; design: method as in EGF10027 protocol, CIB RM2000/00481/06; conditions: mouse, rat, dog, rabbit and human plasma, 1 to 100 µM; ref EGF10027 protocol, CIB RM2000/00481/06; cited from earlier work
[2] = design: method as in EGF10027 protocol, CIB RM2000/00481/06; conditions: ref EGF10027 protocol, CIB RM2000/00481/06, cited from earlier work
[3] = design: method as in EGF10027 protocol, CIB RM2000/00481/06; conditions: oral, male beagle dogs; ref EGF10027 protocol, CIB RM2000/00481/06; cited from earlier work
CYP3A4 = test system: CYP3A4; design: method as in EGF10027 protocol, CIB RM2000/00481/06; conditions: ref EGF10027 protocol, CIB RM2000/00481/06; cited from earlier work
in vivo = conditions: female, CB-17 SCID, mouse; for MRT last: MRTlast
ErbB1 tyrosine kinase = conditions: read-out: IC50, ErbB1 tyrosine kinase; in vitro kinase assay; ref EGF10027 protocol, CIB RM2000/00481/06; cited from earlier work
[4] = mice; ref EGF10027 protocol, CIB RM2000/00481/06; cited from earlier work
[5] = BT474 tumor, po, 100 mg/kg, 100 mg/kg BID, multiple doses
[6] = BT474 tumor, po, 100 mg/kg, single dose
[7] = BT474 tumor, po, 200 mg/kg, 200 mg/kg QD, multiple doses
[8] = BT474 tumor, po, 200 mg/kg, single dose
[9] = blood, oral, 100 mg/kg, individual animals 1-3, blood, 100 mg/kg BID
[10] = blood, po, 100 mg/kg, 100 mg/kg BID, multiple doses
[11] = blood, po, 100 mg/kg, single dose
[12] = blood, po, 200 mg/kg, 200 mg/kg QD, multiple doses
[13] = blood, po, 200 mg/kg, single dose
[14] = kidney, oral, 100 mg/kg, single dose
[15] = kidney, oral, 100 mg/kg, individual animals 1-3, kidney, 100 mg/kg BID
[16] = kidney, oral, 200 mg/kg, single dose
[17] = kidney, oral, 200 mg/kg, individual animals 1-3, kidney, 200 mg/kg QD
[18] = kidney, po, 100 mg/kg, 100 mg/kg BID, multiple doses
[19] = kidney, po, 200 mg/kg, 200 mg/kg QD, multiple doses
[20] = liver, oral, 100 mg/kg, single dose
[21] = liver, oral, 100 mg/kg, individual animals 1-3, liver, 100 mg/kg BID
[22] = liver, oral, 200 mg/kg, single dose
[23] = liver, oral, 200 mg/kg, individual animals 1-3, liver, 200 mg/kg QD
[24] = liver, po, 100 mg/kg, 100 mg/kg BID, multiple doses
[25] = liver, po, 200 mg/kg, 200 mg/kg QD, multiple doses
[26] = tumor, oral, 100 mg/kg, individual animals 1-3, tumor, 100 mg/kg BID
[27] = tumor, oral, 200 mg/kg, individual animals 1-3, tumor, 200 mg/kg QD

CS(=O)(=O)CCNCc1ccc(-c2ccc3ncnc(Nc4ccc(OCc5cccc(F)c5)c(Cl)c4)c3c2)o1 [lapatinib]
concentration at 12 h ([1]; plasma, patients, median (range), 500 mg BID (n = 5), steady state, read-out: Plasma Cmin): 2750 nM
concentration at 24 h ([1]; plasma, 1000 mg, patients, median (range), 1000 mg QD (n = 5), steady state, read-out: Plasma Cmin): 1540 nM
concentration at 24 h ([1]; plasma, 1500 mg, patients, median (range), 1500 mg QD (n = 3), steady state, read-out: Plasma Cmin): 390 nM
concentration at 12 h ([1]; tumor, patients, median (range), 500 mg BID (n = 5), steady state, read-out: Tumor Cmin): 13000 nM
concentration at 24 h ([1]; tumor, 1000 mg, patients, median (range), 1000 mg QD (n = 5), steady state, read-out: Tumor Cmin): 2290 nM
concentration at 24 h ([1]; tumor, 1500 mg, patients, median (range), 1500 mg QD (n = 3), steady state, read-out: Tumor Cmin): 2270 nM
Tumor Cmin ([1]; patients, median (range), 500 mg BID (n = 5), steady state): 12.8 (7.9–31.1) μM
Lap conc, tumor ([1]; subject 5): 25.60 µM
Lap conc, tumor ([1]; subject 124): 56.02 µM
Lap conc, tumor ([1]; subject 801): 1.98 µM
Lap conc, tumor ([1]; subject 803): 2.08 µM
Lap conc, tumor ([1]; subject 804): 7.90 µM
Lap conc, tumor ([1]; subject 1401): 1.02 µM
Lap conc, tumor ([1]; subject 1403): 9.08 µM
Lap conc, tumor ([1]; subject 1405): 12.76 µM
in vitro IC90 for inhibition of HER2 phosphorylation (HER2 phosphorylation): ~0.5 µg/mL
IC90 (HER2 phosphorylation; read-out: in vitro IC90 for inhibition of HER2 phosphorylation): ~900 nM
IC50 (efflux transporter ABCB1): 4000 nM
binding to plasma albumin (plasma albumin): > 99%
plasma protein binding (plasma proteins): > 99%
dose recovered in bile ([2]; bile duct cannulated male rats, within 5 hours after dosing): 32%
overall recovery of radioactivity (nearly quantitative in feces) ([2]; oral, male Wistar Han rats): 90.0%
overall recovery of radioactivity (nearly quantitative in feces) [3]: 89.9%
CYP3A4 inhibition (CYP3A4): inhibitory pot ential towards CYP3A4
concentration at 96 h (in vivo; BT474 tumor, oral, 200 mg/kg, individual animals 1-3, tumor, 200 mg/kg QD): 915 ng/mL
AUC(0-t) (in vivo; BT474 tumor, po, 100 mg/kg, AUClast, 100 mg/kg BID, multiple doses): 1120 µg·h/mL
AUC(0-t) (in vivo; BT474 tumor, po, 100 mg/kg, AUClast, single dose): 313 µg·h/mL
Cmax (in vivo; [5]): 55800 ng/mL
Cmax (in vivo; [6]): 24900 ng/mL
MRT last (in vivo; [5]): 20.5 h
MRT last (in vivo; [6]): 12.6 h
Tmax (in vivo; [5]): 4 h
Tmax (in vivo; [6]): 12 h
AUC(0-t) (in vivo; BT474 tumor, po, 200 mg/kg, AUClast, 200 mg/kg QD, multiple doses): 1320 µg·h/mL
AUC(0-t) (in vivo; BT474 tumor, po, 200 mg/kg, AUClast, single dose): 579 µg·h/mL
Cmax (in vivo; [7]): 79200 ng/mL
Cmax (in vivo; [8]): 44000 ng/mL
MRT last (in vivo; [7]): 18.7 h
MRT last (in vivo; [8]): 17.5 h
Tmax (in vivo; [7]): 10 h
Tmax (in vivo; [8]): 1 h
half-life (in vivo; blood, liver, kidney, tumor, oral, 100 mg/kg): 4 h
concentration at 10 h (in vivo; [9]): 3080 ng/mL
concentration at 24 h (in vivo; [9]): 95.2 ng/mL
concentration at 24 h (in vivo; blood, oral, 200 mg/kg, individual animals 1-3, blood, 200 mg/kg QD): 28 ng/mL
AUC(0-t) (in vivo; blood, po, 100 mg/kg, AUClast, 100 mg/kg BID, multiple doses): 102 µg·h/mL
AUC(0-t) (in vivo; blood, po, 100 mg/kg, AUClast, single dose): 46.7 µg·h/mL
Cmax (in vivo; [10]): 9350 ng/mL
Cmax (in vivo; [11]): 7040 ng/mL
MRT last (in vivo; [10]): 6.9 h
MRT last (in vivo; [11]): 6.3 h
Tmax (in vivo; [10]): 1 h
Tmax (in vivo; [11]): 1 h
AUC(0-t) (in vivo; blood, po, 200 mg/kg, AUClast, 200 mg/kg QD, multiple doses): 152 µg·h/mL
AUC(0-t) (in vivo; blood, po, 200 mg/kg, AUClast, single dose): 88.2 µg·h/mL
Cmax (in vivo; [12]): 16100 ng/mL
Cmax (in vivo; [13]): 8220 ng/mL
MRT last (in vivo; [12]): 7.3 h
MRT last (in vivo; [13]): 8.5 h
Tmax (in vivo; [12]): 10 h
Tmax (in vivo; [13]): 12 h
AUC(0-t) (in vivo; kidney, oral, 100 mg/kg, AUClast, single dose): 267 µg·h/mL
Cmax (in vivo; [14]): 29800 ng/mL
concentration at 1 h (in vivo; [15]): 57200 ng/mL
concentration at 4 h (in vivo; [15]): 72300 ng/mL
concentration at 48 h (in vivo; [15]): 114 ng/mL
concentration at 72 h (in vivo; [15]): 94.5 ng/mL
concentration at 96 h (in vivo; [15]): 47.9 ng/mL
MRT last (in vivo; [14]): 7.7 h
Tmax (in vivo; [14]): 1 h
AUC(0-t) (in vivo; kidney, oral, 200 mg/kg, AUClast, single dose): 633 µg·h/mL
Cmax (in vivo; [16]): 64900 ng/mL
concentration at 1 h (in vivo; [17]): 48300 ng/mL
concentration at 24 h (in vivo; [17]): 144 ng/mL
concentration at 72 h (in vivo; [17]): 77.3 ng/mL
concentration at 96 h (in vivo; [17]): 49.9 ng/mL
MRT last (in vivo; [16]): 9 h
Tmax (in vivo; [16]): 12 h
AUC(0-t) (in vivo; kidney, po, 100 mg/kg, AUClast, 100 mg/kg BID, multiple doses): 1170 µg·h/mL
Cmax (in vivo; [18]): 98500 ng/mL
MRT last (in vivo; [18]): 8.4 h
Tmax (in vivo; [18]): 10 h
AUC(0-t) (in vivo; kidney, po, 200 mg/kg, AUClast, 200 mg/kg QD, multiple doses): 1320 µg·h/mL
Cmax (in vivo; [19]): 136000 ng/mL
MRT last (in vivo; [19]): 8 h
Tmax (in vivo; [19]): 10 h
AUC(0-t) (in vivo; liver, oral, 100 mg/kg, AUClast, single dose): 414 µg·h/mL
Cmax (in vivo; [20]): 46700 ng/mL
concentration at 1 h (in vivo; [21]): 107000 ng/mL
concentration at 4 h (in vivo; [21]): 90700 ng/mL
concentration at 48 h (in vivo; [21]): 193 ng/mL
concentration at 72 h (in vivo; [21]): 121 ng/mL
concentration at 96 h (in vivo; [21]): 66.9 ng/mL
MRT last (in vivo; [20]): 7.5 h
Tmax (in vivo; [20]): 1 h
AUC(0-t) (in vivo; liver, oral, 200 mg/kg, AUClast, single dose): 1050 µg·h/mL
Cmax (in vivo; [22]): 110000 ng/mL
concentration at 1 h (in vivo; [23]): 137000 ng/mL
concentration at 4 h (in vivo; [23]): 223000 ng/mL
concentration at 48 h (in vivo; [23]): 173 ng/mL
concentration at 72 h (in vivo; [23]): 101 ng/mL
concentration at 96 h (in vivo; [23]): 98.3 ng/mL
MRT last (in vivo; [22]): 9.4 h
Tmax (in vivo; [22]): 12 h
AUC(0-t) (in vivo; liver, po, 100 mg/kg, AUClast, 100 mg/kg BID, multiple doses): 1380 µg·h/mL
Cmax (in vivo; [24]): 119000 ng/mL
MRT last (in vivo; [24]): 8 h
Tmax (in vivo; [24]): 10 h
AUC(0-t) (in vivo; liver, po, 200 mg/kg, AUClast, 200 mg/kg QD, multiple doses): 2110 µg·h/mL
Cmax (in vivo; [25]): 240000 ng/mL
MRT last (in vivo; [25]): 8.4 h
Tmax (in vivo; [25]): 10 h
half-life (in vivo; tumor, oral): 15.6 h
concentration at 4 h (in vivo; [26]): 51400 ng/mL
concentration at 10 h (in vivo; [26]): 59200 ng/mL
concentration at 4 h (in vivo; [27]): 47400 ng/mL
concentration at 10 h (in vivo; [27]): 71800 ng/mL
AUC(0-t) (in vivo; tumor, po, 100 mg/kg, AUC 0–12, tumor, median (range), n = 3, after fifth dose of 100 mg/kg BID): 396 µM·h
AUC(0-t) (in vivo; tumor, po, 200 mg/kg, AUC 0–24, tumor, median (range), n = 3, after third dose of 200 mg/kg QD): 1950 µM·h
half-life (in vivo; whole blood, oral): 3.9 h
AUC(0-t) (in vivo; whole blood, po, 100 mg/kg, AUC 0–12, blood, median (range), n = 3, after fifth dose of 100 mg/kg BID): 104 µM·h
AUC(0-t) (in vivo; whole blood, po, 200 mg/kg, AUC 0–24, blood, median (range), n = 3, after third dose of 200 mg/kg QD): 739 µM·h
IC50 (ErbB1 tyrosine kinase): 10 nM
single intravenous dose with no deaths [4]: up to 46 mg/kg
single oral dose with no deaths [4]: up to 2,000 mg/kg
